The test system of this experiment is MCH receptors. The experiment in a line: MCH receptor activity class (method not given).
Where [1] appears, read: MCH receptor, class by percent of control at 10^-7 M or IC50.
Where [2] appears, read: class by percent of control at 10^−7 M or IC50.
Setting [3] is: activity class 1-3: percent of control at 10^-7 M or IC50.
Setting [4] is: class 1-3 by percent of control at 10^-7 M or IC50.
The mark [5] stands for this setting: class by percent of control at 10^-7 M or IC50.

We go through 38 compounds from patent US20050197350A1, “Novel quinoline, tetrahydroquinazoline, and pyrimidine derivatives and methods of treatment related to the use thereof” (TAISHO PHARMACEUTICAL CO., LTD., priority 2003, published 2005).

Where two headings read alike, the source gives them in different places.

Turning to `CN(C)c1nc(N[C@H]2CC[C@@H](NC(=S)NC3CCCCCC3)CC2)nc2c1CCCC2` [compound 2055], the class under setting [1] is on record as 3 (Class 3 The value of percent of control at 10^−7 M was more than 60% or the value of IC50 was more than 200 nM.). On to `Cc1cnc(N[C@H]2CC[C@@H](NC(=O)c3cccnc3Oc3cccc(F)c3)CC2)nc1N(C)C` [compound 2886, N-(cis-4-{[4-(dimethylamino)-5-methylpyrimidin-2-yl]amino}cyclohexyl)-2-(3-fluorophenoxy)nicotinamide], for which the class under setting [2] is listed as 1 (Class 1: The value of percent of control at 10^−7 M was less than 40% or the value of IC50 was less than 50 nM.). With `CN(C)c1nc(N[C@H]2CC[C@@H](CNC(=O)OCC(C)(C)C)CC2)nc2c1CCCC2` [compound 1600], under setting [3], the class is 3 (Class 3 The value of percent of control at 10^−7 M was more than 60% or the value of IC50 was more than 200 nM.).

As for `CN(C)c1ccnc(N[C@H]2CC[C@@H](CNC(=O)c3cccc(Cl)c3Cl)CC2)n1` [compound 442], under setting [4], the class is reported as 3 (Class 3 The value of percent of control at 10^−7 M was more than 60% or the value of IC50 was more than 200 nM.).

On to `Cc1oc(-c2ccccc2)cc1CNC[C@H]1CC[C@@H](Nc2cc(N(C)C)c3ccccc3n2)CC1` [compound 1192], for which the class under setting [5] is 3 (Class 3 The value of percent of control at 10^−7 M was more than 60% or the value of IC50 was more than 200 nM.). For the compound `CN(C)c1nc(N[C@H]2CC[C@@H](NC(=O)CCCOc3ccccc3)CC2)nc2c1CCCC2` [compound 556], the class under setting [4] is listed as 3 (Class 3 The value of percent of control at 10^−7 M was more than 60% or the value of IC50 was more than 200 nM.). For `CC(=O)OC(C(=O)N[C@H]1CC[C@@H](Nc2nccc(N(C)C)n2)CC1)c1ccccc1` (relative stereo) [compound 310], under setting [5], the class is 3 (Class 3 The value of percent of control at 10^−7 M was more than 60% or the value of IC50 was more than 200 nM.). The same measure, in the same setting: under `CN(C)c1cc(N[C@H]2CC[C@@H](CNCCCC#Cc3ccccc3)CC2)nc2ccccc12` [compound 1469] stands 3 (Class 3 The value of percent of control at 10^−7 M was more than 60% or the value of IC50 was more than 200 nM.). Turning to `Cc1cc(N[C@H]2CC[C@@H](NC(=O)c3cccc(C#N)c3)CC2)nc2ccccc12` [Example 2550, 3-cyano-N-{cis-4-[(4-methylquinolin-2-yl)amino]cyclohexyl}benzamide], the class is 1. Consider `Cc1cc(C)c2occ(CN[C@H]3CC[C@@H](Nc4nccc(N(C)C)n4)CC3)c(=O)c2c1` [compound 1229], for which the class under setting [5] is 3 (Class 3 The value of percent of control at 10^−7 M was more than 60% or the value of IC50 was more than 200 nM.). As to `Cc1cnc(N[C@H]2CC[C@@H](CNC(=O)c3cccnc3Oc3cccc(F)c3)C2)nc1N(C)C` [compound 3017], under setting [2], the class is 3 (Class 3 The value of percent of control at 10^−7 M was more than 60% or the value of IC50 was more than 200 nM.). Regarding `CN(C)c1ccnc(N[C@H]2CC[C@@H](NC(=O)c3ccc(C(F)(F)F)cc3)CC2)n1` [compound 335], the class under setting [5] was 3 (Class 3 The value of percent of control at 10^−7 M was more than 60% or the value of IC50 was more than 200 nM.). For the compound `COc1cc(OC)c(CNC[C@H]2CC[C@@H](Nc3nc4c(c(N(C)C)n3)CCCC4)CC2)c(OC)c1` [compound 1403], the class under setting [5] is reported as 1 (Class 1: The value of percent of control at 10^−7 M was less than 40% or the value of IC50 was less than 50 nM.).

With `CN(C)c1cc(N[C@H]2CC[C@@H](NC(=S)NCc3ccccc3Cl)CC2)nc2ccccc12` [compound 2279], under setting [5], the class is listed as 3 (Class 3 The value of percent of control at 10^−7 M was more than 60% or the value of IC50 was more than 200 nM.). For `Cc1cc(N(C)C)nc(N[C@H]2CC[C@@H](NC(=O)c3ccc(Cl)c(C(F)(F)F)c3)CC2)n1` [compound 2982], the class under setting [2] was 1 (Class 1: The value of percent of control at 10^−7 M was less than 40% or the value of IC50 was less than 50 nM.). For the compound `CN(C)c1ccnc(N[C@H]2CC[C@@H](NC(=O)/C=C/c3ccc([N+](=O)[O-])cc3)CC2)n1` [compound 297], the class under setting [5] is 3 (Class 3 The value of percent of control at 10^−7 M was more than 60% or the value of IC50 was more than 200 nM.). Same read-out and setting: the result for `CCCCCNC(=O)N[C@H]1CC[C@@H](Nc2nccc(N(C)C)n2)CC1` [compound 2223] reads 3 (Class 3 The value of percent of control at 10^−7 M was more than 60% or the value of IC50 was more than 200 nM.); that for `CN(C)c1cc(N[C@H]2CC[C@@H](NCCc3ccc(Br)cc3)CC2)nc2ccccc12` [compound 1447], 3 (Class 3 The value of percent of control at 10^−7 M was more than 60% or the value of IC50 was more than 200 nM.); that for `Cc1cc(C)c(NC(=S)N[C@H]2CC[C@@H](Nc3nc4c(c(N(C)C)n3)CCCC4)CC2)cc1C` [compound 1769], 3 (Class 3 The value of percent of control at 10^−7 M was more than 60% or the value of IC50 was more than 200 nM.). On the same count and under the same terms, the result for `Cc1cc(NC(=O)N[C@H]2CC[C@@H](Nc3nccc(N(C)C)n3)CC2)c(C(F)(F)F)o1` [compound 2212] reads 3 (Class 3 The value of percent of control at 10^−7 M was more than 60% or the value of IC50 was more than 200 nM.); that for `CCCCc1ccc(NC(=O)N[C@H]2CC[C@@H](Nc3cc(N(C)C)c4ccccc4n3)CC2)c(C)c1` [compound 2165], 3 (Class 3 The value of percent of control at 10^−7 M was more than 60% or the value of IC50 was more than 200 nM.). Consider `CCC(C(=O)N[C@H]1CC[C@@H](Nc2nc3c(c(N(C)C)n2)CCCC3)CC1)c1ccccc1` (relative stereo) [compound 502], for which the class under setting [4] is listed as 3 (Class 3 The value of percent of control at 10^−7 M was more than 60% or the value of IC50 was more than 200 nM.).

With `CN(C)c1ccnc(N[C@H]2CC[C@@H](NC(=S)Nc3c(Cl)cc(Cl)cc3Cl)CC2)n1` [compound 2319], the class (MCH receptor activity class 1-3 (percent of control at 10^-7 M or IC50)) is listed as 3 (Class 3 The value of percent of control at 10^−7 M was more than 60% or the value of IC50 was more than 200 nM.).

Regarding `Cc1sc(-c2ccccc2)nc1CC(=O)N[C@H]1CC[C@@H](Nc2cc(N(C)C)c3ccccc3n2)CC1` [compound 712], the class under setting [5] is recorded as 3 (Class 3 The value of percent of control at 10^−7 M was more than 60% or the value of IC50 was more than 200 nM.). On the same count and under the same terms, the result for `CN(C)c1ccnc(N[C@H]2CC[C@@H](NC(=O)CCC(=O)c3ccc(F)cc3)CC2)n1` [compound 846] reads 3 (Class 3 The value of percent of control at 10^−7 M was more than 60% or the value of IC50 was more than 200 nM.). In the case of `COC(=O)[C@H](Cc1ccccc1)NC(=O)N[C@H]1CC[C@@H](Nc2nc3c(c(N(C)C)n2)CCCC3)CC1` (relative stereo) [compound 1705], under setting [3], the class is on record as 3 (Class 3 The value of percent of control at 10^−7 M was more than 60% or the value of IC50 was more than 200 nM.). For `CN(C)c1cc(N[C@H]2CC[C@@H](CNCc3cc(C(F)(F)F)cc(Cl)c3F)CC2)nc2ccccc12` [compound 1197], the class under setting [5] is listed as 3 (Class 3 The value of percent of control at 10^−7 M was more than 60% or the value of IC50 was more than 200 nM.).

With `CN(C)c1nc(N[C@H]2CC[C@@H](CNC(=O)OCCOCc3ccccc3)CC2)nc2c1CCCC2` [compound 1599], the class under setting [3] is recorded as 3 (Class 3 The value of percent of control at 10^−7 M was more than 60% or the value of IC50 was more than 200 nM.). Consider `Cc1cnc(N[C@H]2CC[C@@H](CNC(=O)c3cccnc3Oc3ccc(Cl)c(F)c3)C2)nc1N(C)C` [compound 3020], for which the class under setting [2] is on record as 3 (Class 3 The value of percent of control at 10^−7 M was more than 60% or the value of IC50 was more than 200 nM.).

Regarding `Cc1cc(N(C)C)nc(N[C@H]2CC[C@@H](C(=O)NCc3cccc(Cl)c3)CC2)n1` [compound 2812, cis-N-(3-chlorobenzyl)-4-{[4-(dimethylamino)-6-methylpyrimidin-2-yl]amino}cyclohexanecarboxamide], under setting [2], the class was 1 (Class 1: The value of percent of control at 10^−7 M was less than 40% or the value of IC50 was less than 50 nM.). Turning to `COc1ccccc1NC(=S)N[C@H]1CC[C@@H](Nc2nc3c(c(N(C)C)n2)CCCC3)CC1` [compound 1743], the class under setting [5] is on record as 3 (Class 3 The value of percent of control at 10^−7 M was more than 60% or the value of IC50 was more than 200 nM.).

Take `CN(C)c1ccnc(N[C@H]2CC[C@@H](NC(=O)c3ccc(Cl)c(Cl)c3)CC2)n1` [compound 249]: the class under setting [5] was 1 (Class 1: The value of percent of control at 10^−7 M was less than 40% or the value of IC50 was less than 50 nM.). With `CN(C)c1nc(N[C@H]2CC[C@@H](NC(=S)Nc3cc(Cl)c(Cl)c(Cl)c3Cl)CC2)nc2c1CCCC2` [compound 1999], under setting [1], the class was 3 (Class 3 The value of percent of control at 10^−7 M was more than 60% or the value of IC50 was more than 200 nM.).

Take `Cc1cc(C(=O)N[C@H]2CC[C@@H](Nc3cc(N(C)C)c4ccccc4n3)CC2)nn1C(C)(C)C` [compound 90]: the class under setting [1] is on record as 3 (Class 3 The value of percent of control at 10^−7 M was more than 60% or the value of IC50 was more than 200 nM.).

In the case of `CC(C)[C@@H]1CC[C@@H](C)CC1OC(=O)NC[C@H]1CC[C@@H](Nc2nccc(N(C)C)n2)CC1` (some centres unmarked) [compound 1653], the class under setting [3] is given as 3 (Class 3 The value of percent of control at 10^−7 M was more than 60% or the value of IC50 was more than 200 nM.). Same read-out and setting: the result for `COCCOC(=O)N[C@H]1CC[C@@H](Nc2nc3c(c(N(C)C)n2)CCCC3)CC1` [compound 1585] reads 3 (Class 3 The value of percent of control at 10^−7 M was more than 60% or the value of IC50 was more than 200 nM.). Take `CN(C)c1nc(N[C@H]2CC[C@@H](CNC(=O)c3cccs3)CC2)nc2c1CCCC2` [compound 614]: the class under setting [5] is 3 (Class 3 The value of percent of control at 10^−7 M was more than 60% or the value of IC50 was more than 200 nM.). In the case of `Cc1ccc(OC(=O)NC[C@H]2CC[C@@H](Nc3nccc(N(C)C)n3)CC2)cc1` [compound 1654], the class under setting [3] is 3 (Class 3 The value of percent of control at 10^−7 M was more than 60% or the value of IC50 was more than 200 nM.).
